# From paper PMC4382313 (Chembiochem : a European journal of chemical biology, 2014)
# Biological target: WelP2 (Hapalosiphon welwitschii, UniProt A0A067YX78)
# Test: in vitro prenyl diphosphate synthase assay
# Assay type: biochemical
# Conditions: product formed; details in SI Methods
smiles,measurement,value
CC(C)=CCC/C(C)=C/COP(=O)(O)OP(=O)(O)O [GPP],in vitro prenyl diphosphate synthase assay,demonstrated that WelP2 is a dedicated geranyl diphosphate synthase to provide GPP (SI Methods)
